{"source": "patent US20200330467A1", "about": "“METHOD AND PHARMACEUTICAL COMPOSITIONS FOR THE TREATMENT OF MULTIPLE MYELOMA” (priority 2016, published 2020)", "key": {"XG1 HMCL": {"system": "XG1 HMCL", "test": "Apoptosis induction, Annexin V APC staining by flow cytometry, XG1", "assay_type": "cell-based, human", "settings": "XG1, UNC0379 5 mM (so in the source)", "protocol": "(§1) Apoptosis induction was analyzed with Annexin V APC staining by flow cytometry. The shown data is one representative experiment and mean values±SD of 3 separate experiments. Statistical analysis was done with a paired t-test."}, "non-myeloma cells": {"system": "non-myeloma cells", "assay_type": "cell-based, human", "settings": "1, 2.5 and 5 μM, day 4, patient mononuclear cell cultures, n=8", "protocol": "[…]. At day 4 of culture, the viability and total cell counts were assessed and the percentage of CD138 viable plasma cells was determined by flow cytometry. Results are median values of the numbers of myeloma cells in the culture wells. The values were compared with a Wilcoxon test for pairs.\n[…]. MMCs cytotoxicity was evaluated using anti-CD138-PE mAb (Immunotech, Marseille, France) as described^18,35. Results were analyzed using GraphPad Prism (http://www.graphpad.com/scientific-software/prism/)."}, "MM cells": {"system": "MM cells", "test": "DNA repair foci (53BP1) immunofluorescence, combination with melphalan", "settings": "sub-lethal dose of UNC0379 combined with melphalan, P<0.001", "from_the_text": "At least 300 cells were counted for each treatment group.\nAfter deposition on slides using a Cytospin centrifuge, cells were fixed with 4% PFA, permeabilized with 0.5% Triton in PBS and saturated with 5% bovine milk in PBS. […] Slides were washed and mounted with Vectashield and 1% DAPI. Images and fluorescence were captured with a ZEISS Axio Imager Z2 microscope (X63 objective) (company, town state), analyzed with Metafer (version3.6, company, town state) and ImageJ softwares. The number of 53BP1 and γH2AX foci was counted in at least 300 nuclei."}, "U2OS cells": {"system": "U2OS cells", "test": "Immunoblot analysis of DNA damage and checkpoint markers in U2OS cells treated with UNC0379", "assay_type": "cell-based, human", "protocol": "For immunoblot analysis, cells washed with phosphate-buffered saline (PBS) were lysed in Laemmli buffer. After measuring protein quantity by Bradford, equal amounts of protein were resolved by SDS-PAGE, transferred to a nitrocellulose membrane and probed with one of the following antibodies: anti-SETD8 (1:1000, Cell Signaling Technology), anti-H4K20me1 (1:1000 cell signaling) anti-phospho-H2A.X-Ser139 (1:1000, millipore). Membranes were then incubated with the appropriate horseradish peroxidase (HRP)-conjugated secondary antibodies. The immunoreactive bands were detected by chemiluminescence."}, "XG7 HMCL": {"system": "XG7 HMCL", "test": "Apoptosis induction, Annexin V APC staining by flow cytometry, XG7", "assay_type": "cell-based, human", "settings": "XG7, UNC0379 5 mM (so in the source)", "protocol": "as §1"}}}
{"compound": "COc1cc2nc(N3CCCC3)nc(NCCCCCN3CCCC3)c2cc1OC", "note": "[UNC0379]", "values": [{"measurement": "annexin-V positive cells", "setting": "XG1 HMCL", "value": 87, "unit": "%"}, {"measurement": "toxicity on the non-myeloma cells", "setting": "non-myeloma cells", "value": "without significant toxicity"}, {"measurement": "accumulation of DNA double strand breaks (53BP1 foci)", "setting": "MM cells", "value": "significantly synergizes with melphalan"}, {"measurement": "P53 level", "setting": "U2OS cells", "value": "stabilization of P53"}, {"measurement": "phosphorylation of CHK1 (DNA damage checkpoint activation)", "setting": "U2OS cells", "value": "phosphorylation of CHK1"}, {"measurement": "γH2A.X (marker of DNA damage)", "setting": "U2OS cells", "value": "increase in γH2A.X"}, {"measurement": "annexin-V positive cells", "setting": "XG7 HMCL", "value": 63, "unit": "%"}]}
